Here are results for 19 compounds from US10981894B2, “Melanocortin subtype-2 receptor (MC2R) antagonists and uses thereof” (Crinetics Pharmaceuticals, Inc., priority 2018, dated 2021).

Each structure is given as a SMILES string.

hMC2 receptor, sequence (Q01718 whole entry): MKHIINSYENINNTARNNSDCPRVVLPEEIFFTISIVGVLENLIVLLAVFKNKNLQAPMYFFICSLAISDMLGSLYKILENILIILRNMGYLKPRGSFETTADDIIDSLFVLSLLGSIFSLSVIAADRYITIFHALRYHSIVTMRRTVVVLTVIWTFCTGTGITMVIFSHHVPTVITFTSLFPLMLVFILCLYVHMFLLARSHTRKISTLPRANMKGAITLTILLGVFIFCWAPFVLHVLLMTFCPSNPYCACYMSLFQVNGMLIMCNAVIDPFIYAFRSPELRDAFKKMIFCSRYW
hMC2 receptor, sequence (Q8TCY5 whole entry partner): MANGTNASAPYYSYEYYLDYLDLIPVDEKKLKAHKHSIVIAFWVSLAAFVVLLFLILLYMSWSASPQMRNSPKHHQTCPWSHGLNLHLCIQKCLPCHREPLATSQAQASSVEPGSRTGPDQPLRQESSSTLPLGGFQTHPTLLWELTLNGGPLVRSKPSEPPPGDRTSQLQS

The experiment deals with hMC2 receptor (Homo sapiens, UniProt Q01718). Description: hMC2 membrane binding assay ([125I]ACTH (1-39) Tyr23, SPA). Also on record: scale not given here. The conditions noted are these: crude hMC2R membranes from CRE-bla-CHO-K1 cells expressing hMC2 receptor and hMRAP; [125I]ACTH (1-39) Tyr23 0.2 nM; 1.5 hours at room temperature; read-out: MC2R binding potency. The method, boiled down:
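CRE-bla-CHO-K1 membranes co-expressing hMC2 receptor and hMRAP, preincubated with WGA PVT SPA beads in pH 7.4 HEPES/MgCl2/CaCl2/0.2% BSA buffer. Compounds (typically 0–10,000 nM final) compete with 0.2 nM [125I]ACTH(1-39) Tyr23 for 1.5 h at room temperature. SPA counts give Ki by non-linear regression.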
On to `CCOc1ncccc1-c1ccc(N2CCN(C(=O)n3ccc4cccc(C#N)c43)C[C@H]2CC)c(C(=O)N[C@@H]2CCN(C)C2)n1` [Compound 1-429, 5-[(2R)-4-(7-cyano-1H-indole-1-carbonyl)-2-ethylpiperazin-1-yl]-2′-ethoxy-N-[(3R)-1-methylpyrrolidin-3-yl]-[2,3′-bipyridine]-6-carboxamide], for which the Ki was less than 10 nM.

Regarding `CC[C@@H]1CN(C(=O)c2ccc(C(F)(F)F)cc2Cl)CCN1c1ccc(-c2cccc(F)c2F)cc1C(=O)NCCN` [Compound 1-1, N-(2-aminoethyl)-4-[(2R)-4-[2-chloro-4-(trifluoromethyl)benzoyl]-2-ethylpiperazin-1-yl]-2′,3′-difluoro-[1,1′-biphenyl]-3-carboxamide], the Ki was in the range of 10 to 100 nM.

On to `CC[C@@H]1CN(C(=O)c2ccc(C(F)(F)F)cc2Cl)CCN1c1ccc(-c2ccccc2COC)cc1C(=O)NCCN` [Compound 1-16, (R)-N-(2-aminoethyl)-4-(4-(2-chloro-4-(trifluoromethyl)benzoyl)-2-ethylpiperazin-1-yl)-2′-(methoxymethyl)-[1,1′-biphenyl]-3-carboxamide], for which the Ki is 10 to 100 nM.

For the compound `CCNc1ccc(C(=O)N2CCN(c3ccc(-c4cccnc4OCC)nc3C(=O)NCCNC)[C@H](CC)C2)c(C(F)(F)F)n1` [Compound 1-225, 2′-ethoxy-5-[(2R)-2-ethyl-4-[6-(ethylamino)-2-(trifluoromethyl)pyridine-3-carbonyl]piperazin-1-yl]-N-[2-(methylamino)ethyl]-[2,3′-bipyridine]-6-carboxamide], the Ki was less than 10 nM.

Consider `CCOc1ncccc1-c1ccc(N2CCN(C(=O)C3(C(F)F)CCCC3)C[C@H]2CC)c(C(=O)N[C@@H]2CCN(C)C2)n1` [Compound 1-416, 5-[(2R)-4-[1-(difluoromethyl)cyclopentanecarbonyl]-2-ethylpiperazin-1-yl]-2′-ethoxy-N-[(3R)-1-methylpyrrolidin-3-yl]-[2,3′-bipyridine]-6-carboxamide], for which the Ki was less than 10 nM.

`CCOc1ccc(C(=O)N2CCN(c3ccc(-c4cccnc4OCC)nc3CN)[C@H](CC)C2)c(C(F)(F)F)n1` [Compound 2-30]: the Ki was less than 10 nM.

With `CCOc1ncccc1-c1ccc(N2CCN(C(=O)c3ccc(Cl)cc3C(F)(F)F)C[C@H]2CC)c(C(=O)NC[C@@H]2CCN2)c1F` [Compound 1-112, N-{[(2S)-azetidin-2-yl]methyl}-6-[(2R)-4-[4-chloro-2-(trifluoromethyl)benzoyl]-2-ethylpiperazin-1-yl]-3-(2-ethoxypyridin-3-yl)-2-fluorobenzamide], the Ki is less than 10 nM.

`CCCOc1ccccc1-c1ccc(N2CCN(C(=O)c3ccc(C(F)(F)F)cc3Cl)C[C@H]2CC)c(C(=O)NCCN)c1` [Compound 1-11, N-(2-aminoethyl)-4-[(2R)-4-[2-chloro-4-(trifluoromethyl)benzoyl]-2-ethylpiperazin-1-yl]-2′-propoxy-[1,1′-biphenyl]-3-carboxamide]: the Ki is 10 to 100 nM.

Regarding `CCOc1ccccc1-c1ccc(N2CCN(C(=O)C3(C(F)(F)F)CCC3)C[C@H]2CC)c(C(=O)N[C@@H]2CCN(C)C2)n1` [Compound 1-344, 6-(2-ethoxyphenyl)-3-[(2R)-2-ethyl-4-[1-(trifluoromethyl)cyclobutanecarbonyl]piperazin-1-yl]-N-[(3R)-1-methylpyrrolidin-3-yl]pyridine-2-carboxamide], the Ki is less than 10 nM.

As to `CCOc1ncccc1-c1ccc(N2CCN(C(=O)c3ccc(Cl)cc3C(F)(F)F)C[C@H]2CC)c(C(=O)NC[C@@H]2CCCN2)c1` [Compound 1-98, 2-[(2R)-4-[4-chloro-2-(trifluoromethyl)benzoyl]-2-ethylpiperazin-1-yl]-5-(2-ethoxypyridin-3-yl)-N-{[(2S)-pyrrolidin-2-yl]methyl}benzamide], the Ki was less than 10 nM.

Consider `CC[C@@H]1CN(C(=O)c2ccc(C(F)(F)F)cc2Cl)CCN1c1ccc(-c2cccc(F)c2Cl)cc1C(=O)NCCN` [Compound 1-9, N-(2-aminoethyl)-2′-chloro-4-[(2R)-4-[2-chloro-4-(trifluoromethyl)benzoyl]-2-ethylpiperazin-1-yl]-3′-fluoro-[1,1′-biphenyl]-3-carboxamide], for which the Ki is 10 to 100 nM.

`CCOc1ncccc1-c1ccc(N2CCN(C(=O)c3ccc(Cl)cc3C(F)F)C[C@H]2CC)c(C(=O)NCCNC)n1` [Compound 1-213, 5-[(2R)-4-[4-chloro-2-(difluoromethyl)benzoyl]-2-ethylpiperazin-1-yl]-2′-ethoxy-N-[2-(methylamino)ethyl]-[2,3′-bipyridine]-6-carboxamide]: the Ki is less than 10 nM.

Consider `CCOc1ccccc1-c1ccc(N2CCN(C(=O)N3CCC[C@H]3C(F)(F)F)C[C@H]2CC)c(C(=O)N[C@H]2CCNC2)n1` [Compound 1-343, 6-(2-ethoxyphenyl)-3-[(2R)-2-ethyl-4-[(2S)-2-(trifluoromethyl)pyrrolidine-1-carbonyl]piperazin-1-yl]-N-[(3S)-pyrrolidin-3-yl]pyridine-2-carboxamide], for which the Ki is less than 10 nM.

`CCOc1ncccc1-c1ccc(N2CCN(C(=O)OC(c3ccccc3)C(C)(C)C)C[C@H]2CC)c(C(=O)N[C@@H]2CCN(C)C2)n1` (stereo partly drawn) [Compound 1-408, 2,2-dimethyl-1-phenylpropyl (3R)-4-(2′-ethoxy-6-{[(3R)-1-methylpyrrolidin-3-yl]carbamoyl}-[2,3′-bipyridin]-5-yl)-3-ethylpiperazine-1-carboxylate]: the Ki is less than 10 nM.

In the case of `CCOc1ncccc1-c1ccc(N2CCN(C(=O)c3ccc(Cl)cc3C(F)(F)F)C[C@H]2CC)c(C(=O)N[C@@H]2CCNC2)c1F` [Compound 1-72, 6-[(2R)-4-[4-chloro-2-(trifluoromethyl)benzoyl]-2-ethylpiperazin-1-yl]-3-(2-ethoxypyridin-3-yl)-2-fluoro-N-[(3R)-pyrrolidin-3-yl]benzamide], the Ki was less than 10 nM.

For `CCOc1ncccc1-c1ccc(N2CCN(C(=O)N3CCCC[C@H]3C(F)(F)F)C[C@H]2CC)c(C(=O)N[C@H]2CCN(C)C2)n1` [Compound 1-434, 2′-ethoxy-5-[(2R)-2-ethyl-4-[(2S)-2-(trifluoromethyl)piperidine-1-carbonyl]piperazin-1-yl]-N-[(3S)-1-methylpyrrolidin-3-yl]-[2,3′-bipyridine]-6-carboxamide], the Ki is less than 10 nM.

Take `CCOc1ncccc1-c1ccc(N2CCN(C(=O)c3ccc(Cl)cc3C(F)(F)F)C[C@H]2CC)c(C(=O)NCCN(C)C)c1F` [Compound 1-173, 6-[(2R)-4-[4-chloro-2-(trifluoromethyl)benzoyl]-2-ethylpiperazin-1-yl]-N-[2-(dimethylamino)ethyl]-3-(2-ethoxypyridin-3-yl)-2-fluorobenzamide]: the Ki is less than 10 nM.

As for `CCOc1ccccc1-c1ccc(N2CCN(C(=O)N3CCC[C@H]3C(C)(C)F)C[C@H]2CC)c(C(=O)N[C@@H]2CCN(C)C2)n1` [Compound 1-412, 6-(2-ethoxyphenyl)-3-[(2R)-2-ethyl-4-[(2S)-2-(2-fluoropropan-2-yl)pyrrolidine-1-carbonyl]piperazin-1-yl]-N-[(3R)-1-methylpyrrolidin-3-yl]pyridine-2-carboxamide], the Ki was less than 10 nM.

With `CCOc1ncccc1-c1ccc(N2CCN(C(=O)c3ccc(Cl)cc3N3CCC(N)CC3)C[C@H]2CC)c(C(=O)NCCN)c1` [Compound 1-52, N-(2-aminoethyl)-2-[(2R)-4-[2-(4-aminopiperidin-1-yl)-4-chlorobenzoyl]-2-ethylpiperazin-1-yl]-5-(2-ethoxypyridin-3-yl)benzamide], the Ki is less than 10 nM.
